According to patent US20250228835A1, “PYRIDINYLOXYPYRIDINES AND RELATED COMPOUNDS AND THEIR USE IN TREATING MEDICAL CONDITIONS” (Rectify Pharmaceuticals, Inc., priority 2024, published 2025):

What follows are compounds tested against T1, ABCC6 WT (Homo sapiens, UniProt O95255) (assay: ABCC6 WT assay: HiBit protein expression). Conditions: HEK-293 cells transiently expressing HiBit-tagged ABCC6 WT; 24 h treatment; top concentration 20 μM; read-out: ABCC6 WT EC50, Emax.
T1 construct: expressed in transfected cells; host or cells: HEK-293 (transient, Lipofectamine 2000)
T1 sequence (O95255 whole entry): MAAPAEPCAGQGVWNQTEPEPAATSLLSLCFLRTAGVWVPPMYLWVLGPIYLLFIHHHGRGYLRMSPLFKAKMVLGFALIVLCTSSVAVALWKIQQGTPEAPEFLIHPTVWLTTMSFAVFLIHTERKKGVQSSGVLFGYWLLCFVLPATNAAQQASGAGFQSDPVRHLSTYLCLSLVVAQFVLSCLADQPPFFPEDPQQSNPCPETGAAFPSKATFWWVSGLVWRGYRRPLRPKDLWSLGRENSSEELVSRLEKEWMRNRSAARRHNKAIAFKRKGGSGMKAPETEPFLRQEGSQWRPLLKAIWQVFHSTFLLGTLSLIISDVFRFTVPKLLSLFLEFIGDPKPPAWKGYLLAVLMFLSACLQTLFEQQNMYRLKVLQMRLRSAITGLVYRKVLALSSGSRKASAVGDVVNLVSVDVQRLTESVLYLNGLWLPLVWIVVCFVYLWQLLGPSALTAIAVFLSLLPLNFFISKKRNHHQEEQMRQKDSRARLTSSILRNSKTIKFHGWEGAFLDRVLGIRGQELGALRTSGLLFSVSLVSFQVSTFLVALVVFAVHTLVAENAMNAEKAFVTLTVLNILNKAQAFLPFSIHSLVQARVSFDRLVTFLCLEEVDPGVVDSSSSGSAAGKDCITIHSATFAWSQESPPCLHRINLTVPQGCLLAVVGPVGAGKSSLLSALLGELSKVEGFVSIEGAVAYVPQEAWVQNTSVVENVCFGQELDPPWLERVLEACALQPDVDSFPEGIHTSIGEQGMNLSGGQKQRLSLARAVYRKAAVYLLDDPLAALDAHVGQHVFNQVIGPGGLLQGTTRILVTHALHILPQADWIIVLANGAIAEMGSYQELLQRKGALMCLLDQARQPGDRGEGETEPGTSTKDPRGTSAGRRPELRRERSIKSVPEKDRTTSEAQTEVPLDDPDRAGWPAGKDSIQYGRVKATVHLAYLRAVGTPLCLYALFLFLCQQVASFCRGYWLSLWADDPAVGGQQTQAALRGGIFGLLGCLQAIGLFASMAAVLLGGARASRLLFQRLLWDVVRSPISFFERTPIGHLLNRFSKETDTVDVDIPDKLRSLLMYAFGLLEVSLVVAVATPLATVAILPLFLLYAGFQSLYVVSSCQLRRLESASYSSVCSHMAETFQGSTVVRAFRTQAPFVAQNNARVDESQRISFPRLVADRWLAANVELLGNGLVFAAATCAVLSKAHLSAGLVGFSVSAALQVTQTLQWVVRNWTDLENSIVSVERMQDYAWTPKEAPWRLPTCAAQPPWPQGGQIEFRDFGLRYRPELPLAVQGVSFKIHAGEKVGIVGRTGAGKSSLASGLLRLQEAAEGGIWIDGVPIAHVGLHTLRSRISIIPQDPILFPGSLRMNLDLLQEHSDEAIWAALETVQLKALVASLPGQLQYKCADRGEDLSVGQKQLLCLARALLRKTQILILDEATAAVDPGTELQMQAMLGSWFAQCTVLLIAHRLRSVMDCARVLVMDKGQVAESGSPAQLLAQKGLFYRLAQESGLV
Type: cell-based
Outline: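 HEK-293 cells transiently transfected with HiBit-tagged human ABCC6 WT cDNA, seeded 24 h post-transfection, treated 24 h at 37° C with ten 2-fold doses (top 20 μM final, 0.15% DMSO). HiBit lytic luminescence reports protein expression; Emax and EC50 derived.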
`Cc1cc(N2CC(F)(F)C2)nc(C)c1Oc1nc(-c2cncc(C#N)c2)ccc1NS(C)(=O)=O` [Compound I-180] showed an EC50 of under 1 µM. In the case of `Cc1nc(C2CCC2)nc(C)c1Oc1nc(-c2cncc(C#N)c2)ccc1NS(C)(=O)=O` [Compound I-181], the EC50 is reported as under 1 µM. Work on `Cc1cc(Oc2nc(-c3cncc(C#N)c3)ccc2NS(C)(=O)=O)c(C)nc1C(F)(F)F` [Compound I-182] yielded an EC50 of under 1 µM. `Cc1nc(C2CC2)nc(C)c1Oc1nc(-c2cncc(C#N)c2)ccc1NS(C)(=O)=O` [Compound I-183] showed an EC50 of under 1 µM. In the case of `Cc1nc(C2CC2)c(C(F)(F)F)cc1Oc1nc(-c2cncc(C#N)c2)ccc1NS(C)(=O)=O` [Compound I-184], the EC50 is reported as under 1 µM. With `Cc1cc(C)c(Oc2nc(-c3cncc(N4CC(F)C4)c3)ccc2NS(C)(=O)=O)c(C)n1` [Compound I-185] the EC50 was under 1 µM. With `Cc1cc(C)c(Oc2nc(-c3ccn(C)c(=O)c3)ccc2NS(C)(=O)=O)c(C)n1` [Compound I-186] the EC50 was under 25 µM. `Cc1cc(C)c(Oc2nc(-c3cc[nH]c(=O)c3)ccc2NS(C)(=O)=O)c(C)n1` [Compound I-187] was tested, and the EC50 was at least 25 µM. `COc1cc(-c2ccc(NS(C)(=O)=O)c(Oc3c(C)cc(C)nc3C)n2)ccn1` [Compound I-188] gave an EC50 of under 1 µM. Compound `Cc1cc(C)c(Oc2nc(-c3cncc(N4CCC4)c3)ccc2NS(C)(=O)=O)c(C)n1` [Compound I-190] has an EC50 of under 1 µM. In the case of `Cc1nc(C)c(Oc2nc(-c3cncc(C(F)F)c3)ccc2NS(C)(=O)=O)c(C)n1` [Compound I-191], the EC50 is reported as 1 to 10 µM. Compound `Cc1nc(C)c(Oc2nc(-c3cncc(C(F)(F)F)c3)ccc2NS(C)(=O)=O)c(C)n1` [Compound I-192] has an EC50 of under 1 µM. Work on `Cc1nc(C)c(Oc2nc(-c3cncc(C4CC4)c3)ccc2NS(C)(=O)=O)c(C)n1` [Compound I-193] yielded an EC50 of under 1 µM. In the case of `Cc1cc(C)c(Oc2nc(-c3cncc(C4CN(C)C4)c3)ccc2NS(C)(=O)=O)c(C)n1` [Compound I-194], the EC50 is reported as at least 25 µM. In the case of `Cc1cc(C)c(Oc2nc(-c3cncc(N4CC(F)(F)C4)c3)ccc2NS(C)(=O)=O)c(C)n1` [Compound I-195], the EC50 is reported as under 1 µM. `COC1CN(c2cncc(-c3ccc(NS(C)(=O)=O)c(Oc4c(C)cc(C)nc4C)n3)c2)C1` [Compound I-196] was tested, and the EC50 was under 1 µM. For `Cc1cc(C(F)F)nc(C)c1Oc1nc(-c2cncc(C3COC3)c2)ccc1NS(C)(=O)=O` [Compound I-197], the EC50 was under 1 µM. Work on `Cc1cc(C(F)(F)F)nc(C)c1Oc1nc(-c2cncc(C3COC3)c2)ccc1NS(C)(=O)=O` [Compound I-198] yielded an EC50 of at least 25 µM. `Cc1cc(C(F)F)nc(C)c1Oc1nc(-c2cncc(C#N)c2)ccc1NS(=O)(=O)C1CC1` [Compound I-199] was tested, and the EC50 was 1 to 10 µM. For `Cc1nc(C(F)(F)F)nc(C)c1Oc1nc(-c2cncc(C#N)c2)ccc1NS(C)(=O)=O` [Compound I-200], the EC50 was under 1 µM. Work on `Cc1cc(C)c(Oc2nc(-c3cncc(N4CCOCC4)c3)ccc2NS(C)(=O)=O)c(C)n1` [Compound I-201] yielded an EC50 of 1 to 10 µM. In the case of `Cc1cc(C(F)F)nc(C)c1Oc1nc(-c2cncc(Cl)c2)ccc1NS(C)(=O)=O` [Compound I-202], the EC50 is reported as under 1 µM. `Cc1cc(C(F)F)nc(C)c1Oc1nc(-c2ccnc(C#N)c2)ccc1NS(=O)(=O)C1CC1` [Compound I-203] gave an EC50 of under 1 µM. Work on `Cc1cc(C(F)F)nc(C)c1Oc1nc(-c2ccnc(C#N)c2)ccc1NS(C)(=O)=O` [Compound I-204] yielded an EC50 of under 1 µM. `Cc1nc(C(F)(F)F)nc(C)c1Oc1nc(-c2cncc(Cl)c2)ccc1NS(C)(=O)=O` [Compound I-205] was tested, and the EC50 was under 1 µM. `COC(=O)c1cncc(-c2ccc(NS(C)(=O)=O)c(Oc3cc(C)n(C)n3)n2)c1` [Compound I-206] was tested, and the EC50 was 1 to 10 µM. For `Cc1cc(C2CCC2)nc(C)c1Oc1nc(-c2cncc(C#N)c2)ccc1NS(C)(=O)=O` [Compound I-208], the EC50 was under 1 µM. In the case of `COc1nc(C)cc(C)c1Oc1nc(-c2cncc(C#N)c2)ccc1NS(C)(=O)=O` [Compound I-209], the EC50 is reported as under 1 µM. Work on `Cc1cc(C)c(Oc2nc(-c3ccnc(C#N)c3)ccc2NS(=O)(=O)C2CC2)c(C)n1` [Compound I-211] yielded an EC50 of under 1 µM. For `C#Cc1cncc(-c2ccc(NS(C)(=O)=O)c(Oc3c(C)cc(C)nc3C)n2)c1` [Compound I-212], the EC50 was under 1 µM. `Cc1cc(C2CC2)nc(C)c1Oc1nc(-c2ccnc(C#N)c2)ccc1NS(C)(=O)=O` [Compound I-213] showed an EC50 of under 1 µM. `Cc1cc(C)c(Oc2nc(-c3cncc(C4COC4)c3)ccc2NS(C)(=O)=O)c(C)n1` [Compound I-216] gave an EC50 of under 1 µM. For `CCS(=O)(=O)Nc1ccc(-c2cncc(C#N)c2)nc1Oc1c(C)cc(C(F)(F)F)nc1C` [Compound I-217], the EC50 was under 1 µM. For `Cc1cc(C(F)(F)F)nc(C)c1Oc1nc(-c2cncc(C#N)c2)ccc1NS(=O)(=O)C1CC1` [Compound I-218], the EC50 was under 1 µM. `Cc1cc(C(F)(F)F)nc(C)c1Oc1nc(-c2ccnc(C#N)c2)ccc1NS(C)(=O)=O` [Compound I-219] was tested, and the EC50 was under 1 µM. With `Cc1cc(C)c(Oc2nc(-c3cncc(C(C)(C)O)c3)ccc2NS(C)(=O)=O)c(C)n1` [Compound I-220] the EC50 was at least 25 µM. `Cc1cc(C)c(Oc2nc(-c3cncc(C#N)c3)ccc2N2CCCS2(=O)=O)c(C)n1` [Compound I-221] gave an EC50 of 1 to 10 µM. Compound `COc1cc(C)c(Oc2nc(-c3cncc(C#N)c3)ccc2NS(C)(=O)=O)c(C)n1` [Compound I-222] has an EC50 of under 1 µM. With `Cc1nc(C)c(C(F)(F)F)cc1Oc1nc(-c2cncc(C#N)c2)ccc1NS(C)(=O)=O` [Compound I-225] the EC50 was under 1 µM. `Cc1cc(Oc2nc(-c3cncc(C#N)c3)ccc2NS(C)(=O)=O)c(C)nc1C` [Compound I-226] showed an EC50 of under 1 µM. `Cc1cc(C)c(Oc2nc(-c3cncc(CO)c3)ccc2NS(C)(=O)=O)c(C)n1` [Compound I-227] gave an EC50 of under 1 µM. In the case of `Cc1cc(C)c(Oc2nc(-c3cncc(C#N)c3)ccc2NS(=O)(=O)C2COC2)c(C)n1` [Compound I-228], the EC50 is reported as under 1 µM. In the case of `Cc1nc(C)c(C2CC2)cc1Oc1nc(-c2cncc(C#N)c2)ccc1NS(C)(=O)=O` [Compound I-229], the EC50 is reported as 1 to 10 µM. In the case of `Cc1cc(C(F)F)nc(C)c1Oc1nc(-c2cncc(C#N)c2)ccc1NS(C)(=O)=O` [Compound I-230], the EC50 is reported as under 1 µM. `COCc1cncc(-c2ccc(NS(C)(=O)=O)c(Oc3c(C)cc(C)nc3C)n2)c1` [Compound I-231] was tested, and the EC50 was under 1 µM. Compound `Cc1cc(C)c(Oc2nc(-c3cncc(C4CC4)c3)ccc2NS(C)(=O)=O)c(C)n1` [Compound I-232] has an EC50 of under 1 µM. Compound `Cc1nc(C)c(Oc2nc(-c3cncc(C#N)c3)ccc2NS(C)(=O)=O)c(C)n1` [Compound I-234] has an EC50 of under 1 µM. Compound `Cc1cc(C2CC2)nc(C)c1Oc1nc(-c2cncc(C#N)c2)ccc1NS(=O)(=O)C1COC1` [Compound I-235] has an EC50 of under 1 µM. `Cc1cc(C2CC2)nc(C)c1Oc1nc(-c2cncc(Cl)c2)ccc1NS(=O)(=O)C1COC1` [Compound I-236] gave an EC50 of under 1 µM. Work on `Cc1cc(C)c(Oc2nc(-c3cncc(Cl)c3)ccc2NS(=O)(=O)C2COC2)c(C)n1` [Compound I-237] yielded an EC50 of under 1 µM.
